Several values for one entry are separate records, joined by “and”; a condition that tells them apart may be missing. Equal values may be shown once.
How the values were obtained:
Assay in all cases: radiometric filter-binding kinase assay, Kinase HotSpot
Settings in all cases: compound 0.5 µM; ATP 10 µM
HIPK2 (human) = HIPK2 (human) (UniProt Q9H2X6)
TTK (human) = TTK (human) (UniProt P33981)
MYLK (human) = MYLK (human) (UniProt Q15746)
RPS6KB2 (human) = RPS6KB2 (human) (UniProt Q9UBS0)
EPHA5 (human) = EPHA5 (human) (UniProt P54756)
FYN (human) = FYN (human) (UniProt P06241)
IGF1R (human) = IGF1R (human) (UniProt P08069)
PDGFRB (human) = PDGFRB (human) (UniProt P09619)
MAPK12 (human) = MAPK12 (human) (UniProt P53778)
STK4 (human) = STK4 (human) (UniProt Q13043)
CAMK2D (human) = CAMK2D (human) (UniProt Q13557)
IKBKB (human) = IKBKB (human) (UniProt O14920)
STK16 (human) = STK16 (human) (UniProt O75716)
LYN (human) = LYN (human) (UniProt P07948)
MAP4K4 (human) = MAP4K4 (human) (UniProt O95819)
CDK2 CCNE1 (human) = CDK2 CCNE1 (human) (UniProt P24941+P24864)
CAMK1G (human) = CAMK1G (human) (UniProt Q96NX5)
CDK2 CCNA2 (human) = CDK2 CCNA2 (human) (UniProt P24941+P20248)
CSNK1G3 (human) = CSNK1G3 (human) (UniProt Q9Y6M4)
CAMK2B (human) = CAMK2B (human) (UniProt Q13554)
EPHA8 (human) = EPHA8 (human) (UniProt P29322)
ZAP70 (human) = ZAP70 (human) (UniProt P43403)
FES (human) = FES (human) (UniProt P07332)
PLK3 (human) = PLK3 (human) (UniProt Q9H4B4)
CSNK1G1 (human) = CSNK1G1 (human) (UniProt Q9HCP0)
STK24 (human) = STK24 (human) (UniProt Q9Y6E0)
MAPKAPK5 (human) = MAPKAPK5 (human) (UniProt Q8IW41)
TSSK1B (human) = TSSK1B (human) (UniProt Q9BXA7)
CAMK1D (human) = CAMK1D (human) (UniProt Q8IU85)
WEE1 (human) = WEE1 (human) (UniProt P30291)
MAPK14 (human) = MAPK14 (human) (UniProt Q16539)
MAP3K3 (human) = MAP3K3 (human) (UniProt Q99759)
EPHA6 (human) = EPHA6 (human) (UniProt Q9UF33)
CDC42BPB (human) = CDC42BPB (human) (UniProt Q9Y5S2)
RAF1 (human) = RAF1 (human) (UniProt P04049)
TBK1 (human) = TBK1 (human) (UniProt Q9UHD2)
SGK3 (human) = SGK3 (human) (UniProt Q96BR1)
FGFR3 (human) = FGFR3 (human) (UniProt P22607)
FER (human) = FER (human) (UniProt P16591)
NTRK1 (human) = NTRK1 (human) (UniProt P04629)
EPHB3 (human) = EPHB3 (human) (UniProt P54753)
CSNK1D (human) = CSNK1D (human) (UniProt P48730)

Chain of LYN (human) (P07948 whole entry, looked up): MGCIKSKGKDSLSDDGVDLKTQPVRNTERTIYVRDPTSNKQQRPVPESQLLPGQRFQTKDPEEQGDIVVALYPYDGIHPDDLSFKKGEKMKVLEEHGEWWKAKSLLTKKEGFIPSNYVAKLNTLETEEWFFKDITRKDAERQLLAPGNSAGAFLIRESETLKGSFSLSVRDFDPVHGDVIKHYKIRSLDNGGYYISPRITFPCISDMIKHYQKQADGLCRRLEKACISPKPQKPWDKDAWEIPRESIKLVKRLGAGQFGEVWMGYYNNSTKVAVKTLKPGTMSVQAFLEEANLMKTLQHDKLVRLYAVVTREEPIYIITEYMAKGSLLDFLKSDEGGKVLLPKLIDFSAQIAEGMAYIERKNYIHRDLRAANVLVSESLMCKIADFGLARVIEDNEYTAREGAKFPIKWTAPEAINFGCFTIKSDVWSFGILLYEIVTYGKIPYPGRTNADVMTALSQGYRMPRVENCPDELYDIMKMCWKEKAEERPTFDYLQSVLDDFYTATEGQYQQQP
Chain of NTRK1 (human) (P04629 whole entry, looked up): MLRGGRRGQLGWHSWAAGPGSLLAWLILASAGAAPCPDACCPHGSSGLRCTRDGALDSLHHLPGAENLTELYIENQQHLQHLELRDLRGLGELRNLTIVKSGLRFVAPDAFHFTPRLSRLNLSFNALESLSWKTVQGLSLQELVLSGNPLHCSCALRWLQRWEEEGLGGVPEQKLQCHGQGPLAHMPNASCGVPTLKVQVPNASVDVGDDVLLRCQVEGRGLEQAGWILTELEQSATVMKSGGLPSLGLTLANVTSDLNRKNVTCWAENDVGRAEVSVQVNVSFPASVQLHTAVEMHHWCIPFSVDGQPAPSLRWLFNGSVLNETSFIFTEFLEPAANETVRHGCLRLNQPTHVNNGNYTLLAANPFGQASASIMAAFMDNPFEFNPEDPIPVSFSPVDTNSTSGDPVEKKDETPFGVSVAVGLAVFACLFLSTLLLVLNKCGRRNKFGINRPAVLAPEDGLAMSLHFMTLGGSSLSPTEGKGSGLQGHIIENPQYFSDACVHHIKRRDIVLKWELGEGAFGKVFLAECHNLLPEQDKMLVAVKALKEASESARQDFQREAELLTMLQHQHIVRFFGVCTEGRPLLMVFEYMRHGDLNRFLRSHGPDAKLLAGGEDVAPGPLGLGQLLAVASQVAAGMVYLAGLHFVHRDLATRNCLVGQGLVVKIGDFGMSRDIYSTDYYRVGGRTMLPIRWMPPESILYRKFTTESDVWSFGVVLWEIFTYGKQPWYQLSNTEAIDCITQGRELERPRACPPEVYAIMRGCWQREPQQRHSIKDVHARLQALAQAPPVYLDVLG
Chain of TSSK1B (human) (Q9BXA7 whole entry, looked up): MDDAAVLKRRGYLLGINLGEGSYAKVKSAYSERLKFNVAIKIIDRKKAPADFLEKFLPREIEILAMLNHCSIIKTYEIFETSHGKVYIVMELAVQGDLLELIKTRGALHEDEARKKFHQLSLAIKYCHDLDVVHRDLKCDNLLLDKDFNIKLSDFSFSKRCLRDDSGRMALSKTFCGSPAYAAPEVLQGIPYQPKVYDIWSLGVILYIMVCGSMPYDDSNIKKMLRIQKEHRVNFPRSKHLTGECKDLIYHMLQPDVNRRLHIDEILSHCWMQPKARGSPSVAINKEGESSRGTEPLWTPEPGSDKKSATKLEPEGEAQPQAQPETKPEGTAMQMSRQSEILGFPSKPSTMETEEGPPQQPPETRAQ
Chain of CAMK2B (human) (Q13554 whole entry, looked up): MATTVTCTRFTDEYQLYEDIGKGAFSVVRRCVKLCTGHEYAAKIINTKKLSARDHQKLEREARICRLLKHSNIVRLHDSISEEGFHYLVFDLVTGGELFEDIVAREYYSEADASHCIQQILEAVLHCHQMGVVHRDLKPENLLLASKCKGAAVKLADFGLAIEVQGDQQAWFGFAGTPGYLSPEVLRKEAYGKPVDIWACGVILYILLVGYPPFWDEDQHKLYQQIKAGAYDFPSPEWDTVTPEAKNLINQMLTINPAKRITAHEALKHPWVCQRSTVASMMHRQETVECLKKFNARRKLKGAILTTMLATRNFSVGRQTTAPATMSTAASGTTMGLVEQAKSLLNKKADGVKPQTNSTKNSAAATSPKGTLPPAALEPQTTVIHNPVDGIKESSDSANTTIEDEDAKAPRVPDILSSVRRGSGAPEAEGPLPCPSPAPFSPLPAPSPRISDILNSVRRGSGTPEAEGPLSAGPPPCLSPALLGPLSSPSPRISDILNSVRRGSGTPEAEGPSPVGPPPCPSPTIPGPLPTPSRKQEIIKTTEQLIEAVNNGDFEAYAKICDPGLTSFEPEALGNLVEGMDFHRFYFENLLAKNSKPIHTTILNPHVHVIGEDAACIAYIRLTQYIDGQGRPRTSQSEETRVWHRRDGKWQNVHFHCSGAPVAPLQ
Chain of CAMK2D (human) (Q13557 whole entry, looked up): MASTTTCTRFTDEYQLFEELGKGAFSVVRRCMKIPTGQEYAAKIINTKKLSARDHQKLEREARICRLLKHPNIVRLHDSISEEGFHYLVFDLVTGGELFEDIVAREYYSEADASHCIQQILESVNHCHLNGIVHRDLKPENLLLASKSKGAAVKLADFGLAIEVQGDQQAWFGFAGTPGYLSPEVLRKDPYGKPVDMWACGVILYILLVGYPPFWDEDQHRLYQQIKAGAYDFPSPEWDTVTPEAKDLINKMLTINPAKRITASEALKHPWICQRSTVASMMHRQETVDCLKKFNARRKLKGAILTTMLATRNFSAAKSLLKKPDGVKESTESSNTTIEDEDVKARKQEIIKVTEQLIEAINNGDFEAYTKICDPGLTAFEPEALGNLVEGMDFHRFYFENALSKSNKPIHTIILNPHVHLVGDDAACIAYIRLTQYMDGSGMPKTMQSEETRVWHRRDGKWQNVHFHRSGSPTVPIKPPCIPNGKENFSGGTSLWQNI
Chain of CSNK1G3 (human) (Q9Y6M4 whole entry, looked up): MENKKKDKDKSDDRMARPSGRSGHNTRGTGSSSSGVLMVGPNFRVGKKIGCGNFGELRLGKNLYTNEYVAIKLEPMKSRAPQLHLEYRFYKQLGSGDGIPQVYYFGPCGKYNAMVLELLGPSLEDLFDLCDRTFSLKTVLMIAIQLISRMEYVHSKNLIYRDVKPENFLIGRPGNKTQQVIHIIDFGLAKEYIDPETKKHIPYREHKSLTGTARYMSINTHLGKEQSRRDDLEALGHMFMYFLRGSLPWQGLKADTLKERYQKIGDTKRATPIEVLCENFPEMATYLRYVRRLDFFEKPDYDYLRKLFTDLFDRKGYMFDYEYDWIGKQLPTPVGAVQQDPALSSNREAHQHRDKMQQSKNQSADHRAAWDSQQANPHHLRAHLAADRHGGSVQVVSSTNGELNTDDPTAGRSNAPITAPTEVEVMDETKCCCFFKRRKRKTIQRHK
Chain of IKBKB (human) (O14920 whole entry, looked up): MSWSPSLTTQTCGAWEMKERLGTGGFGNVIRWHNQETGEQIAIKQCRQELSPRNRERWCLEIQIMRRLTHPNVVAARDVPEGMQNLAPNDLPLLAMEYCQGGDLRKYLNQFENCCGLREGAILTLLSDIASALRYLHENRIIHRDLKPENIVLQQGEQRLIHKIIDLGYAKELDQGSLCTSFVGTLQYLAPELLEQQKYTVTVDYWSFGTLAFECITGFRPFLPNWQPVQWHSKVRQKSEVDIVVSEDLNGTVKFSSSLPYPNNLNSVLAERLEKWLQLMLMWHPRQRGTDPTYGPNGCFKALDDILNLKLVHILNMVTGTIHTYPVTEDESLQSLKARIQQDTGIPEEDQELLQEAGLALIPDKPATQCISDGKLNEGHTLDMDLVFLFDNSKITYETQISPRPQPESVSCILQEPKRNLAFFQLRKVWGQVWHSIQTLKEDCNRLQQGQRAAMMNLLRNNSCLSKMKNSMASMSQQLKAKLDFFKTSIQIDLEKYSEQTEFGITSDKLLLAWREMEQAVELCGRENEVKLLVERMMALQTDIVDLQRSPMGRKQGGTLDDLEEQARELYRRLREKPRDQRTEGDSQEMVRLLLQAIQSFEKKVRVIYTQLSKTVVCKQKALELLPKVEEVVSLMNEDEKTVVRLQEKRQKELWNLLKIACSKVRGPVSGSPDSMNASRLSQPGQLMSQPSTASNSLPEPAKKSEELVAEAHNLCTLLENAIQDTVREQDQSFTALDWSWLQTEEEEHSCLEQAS
Chain of STK24 (human) (Q9Y6E0 whole entry, looked up): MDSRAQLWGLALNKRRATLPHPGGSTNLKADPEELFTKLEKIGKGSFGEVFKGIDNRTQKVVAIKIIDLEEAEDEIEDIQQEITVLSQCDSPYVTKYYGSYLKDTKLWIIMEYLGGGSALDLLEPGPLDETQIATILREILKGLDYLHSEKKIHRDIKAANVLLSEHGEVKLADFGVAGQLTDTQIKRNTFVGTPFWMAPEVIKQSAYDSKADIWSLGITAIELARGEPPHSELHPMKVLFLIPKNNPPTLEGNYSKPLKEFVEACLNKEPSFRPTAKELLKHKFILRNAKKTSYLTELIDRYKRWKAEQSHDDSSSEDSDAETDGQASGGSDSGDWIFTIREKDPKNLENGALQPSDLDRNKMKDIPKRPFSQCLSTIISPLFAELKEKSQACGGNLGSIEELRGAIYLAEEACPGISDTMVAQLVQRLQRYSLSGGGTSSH
Chain of CAMK1G (human) (Q96NX5 whole entry, looked up): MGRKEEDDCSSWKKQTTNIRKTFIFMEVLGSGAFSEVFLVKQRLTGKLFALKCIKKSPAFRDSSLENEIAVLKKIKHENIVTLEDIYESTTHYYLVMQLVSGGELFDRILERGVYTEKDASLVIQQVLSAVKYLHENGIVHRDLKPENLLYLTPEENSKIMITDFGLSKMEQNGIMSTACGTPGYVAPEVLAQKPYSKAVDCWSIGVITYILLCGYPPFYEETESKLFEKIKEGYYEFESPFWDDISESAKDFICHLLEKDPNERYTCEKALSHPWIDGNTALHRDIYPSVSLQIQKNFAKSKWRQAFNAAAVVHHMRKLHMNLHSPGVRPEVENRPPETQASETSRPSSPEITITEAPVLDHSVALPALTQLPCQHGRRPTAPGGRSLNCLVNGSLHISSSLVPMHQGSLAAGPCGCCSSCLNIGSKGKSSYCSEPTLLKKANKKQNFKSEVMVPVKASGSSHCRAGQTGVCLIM

Compound `Cc1[nH]c(/C=C2\C(=O)Nc3ccc(S(=O)(=O)N(C)c4cccc(Cl)c4)cc32)c(C)c1C(=O)N1CCN(C)CC1` has a residual activity (HIPK2 (human)) of 105%, a residual activity (TTK (human)) of 90.7% and a residual activity (MYLK (human)) of 84.3%. The residual activity (RPS6KB2 (human)) was 98.4%, the residual activity (EPHA5 (human)) was 96.4% and the residual activity (FYN (human)) was 67.1%. The residual activity (IGF1R (human)) was 103%, the residual activity (PDGFRB (human)) was 76.4% and the residual activity (MAPK12 (human)) was 99.8%. It also gave a residual activity (STK4 (human)) of 49.1%, a residual activity (CAMK2D (human)) of 68.4% and a residual activity (IKBKB (human)) of 107%. The residual activity (STK16 (human)) was 95.4%, the residual activity (LYN (human)) was 39.1% and 53.3% and the residual activity (MAP4K4 (human)) was 40.9%. It also gave a residual activity (CDK2 CCNE1 (human)) of 87%, a residual activity (CAMK1G (human)) of 92.5% and a residual activity (CDK2 CCNA2 (human)) of 103%. For the same compound, the residual activity (CSNK1G3 (human)) was 93.3%, the residual activity (CAMK2B (human)) was 89.8% and the residual activity (EPHA8 (human)) was 91.7%. The residual activity (ZAP70 (human)) was 94.4%, the residual activity (FES (human)) was 96% and the residual activity (PLK3 (human)) was 95%. For the same compound, the residual activity (CSNK1G1 (human)) was 104%, the residual activity (STK24 (human)) was 49.6% and the residual activity (MAPKAPK5 (human)) was 77.6%. It also gave a residual activity (TSSK1B (human)) of 21.7%, a residual activity (CAMK1D (human)) of 138% and a residual activity (WEE1 (human)) of 81.8%. The residual activity (MAPK14 (human)) was 86.2%, the residual activity (MAP3K3 (human)) was 63.6% and the residual activity (EPHA6 (human)) was 24%. For the same compound, the residual activity (CDC42BPB (human)) was 113%, the residual activity (RAF1 (human)) was 114% and the residual activity (TBK1 (human)) was 60.4%. For the same compound, the residual activity (SGK3 (human)) was 101%, the residual activity (FGFR3 (human)) was 74.1% and the residual activity (FER (human)) was 81%. The residual activity (NTRK1 (human)) was 7.81%, the residual activity (EPHB3 (human)) was 98.6% and the residual activity (CSNK1D (human)) was 83.5%.

`CCCC(=O)Oc1ccc2[nH]c(C(=O)c3cc4ccccc4[nH]3)cc2c1` showed a residual activity (HIPK2 (human)) of 92.1%, a residual activity (TTK (human)) of 85.7% and a residual activity (MYLK (human)) of 102%. The residual activity (RPS6KB2 (human)) was 102%, the residual activity (EPHA5 (human)) was 97.7% and the residual activity (FYN (human)) was 102%. The residual activity (IGF1R (human)) was 88.3%, the residual activity (PDGFRB (human)) was 91.2% and the residual activity (MAPK12 (human)) was 93.7%. It also gave a residual activity (STK4 (human)) of 96.8%, a residual activity (CAMK2D (human)) of 111% and a residual activity (IKBKB (human)) of 98.7%. For the same compound, the residual activity (STK16 (human)) was 100%, the residual activity (LYN (human)) was 103% and 98.7% and the residual activity (MAP4K4 (human)) was 97.3%. For the same compound, the residual activity (CDK2 CCNE1 (human)) was 92.1%, the residual activity (CAMK1G (human)) was 100% and the residual activity (CDK2 CCNA2 (human)) was 88.9%. For the same compound, the residual activity (CSNK1G3 (human)) was 82.7%, the residual activity (CAMK2B (human)) was 90% and the residual activity (EPHA8 (human)) was 98%. It also gave a residual activity (ZAP70 (human)) of 100%, a residual activity (FES (human)) of 97.8% and a residual activity (PLK3 (human)) of 98.4%. For the same compound, the residual activity (CSNK1G1 (human)) was 76.1%, the residual activity (STK24 (human)) was 95.5% and the residual activity (MAPKAPK5 (human)) was 101%. The residual activity (TSSK1B (human)) was 78.1%, the residual activity (CAMK1D (human)) was 103% and the residual activity (WEE1 (human)) was 85.8%. The residual activity (MAPK14 (human)) was 102%, the residual activity (MAP3K3 (human)) was 91.9% and the residual activity (EPHA6 (human)) was 88%. The residual activity (CDC42BPB (human)) was 99.5%, the residual activity (RAF1 (human)) was 98.7% and the residual activity (TBK1 (human)) was 119%. It also gave a residual activity (SGK3 (human)) of 102%, a residual activity (FGFR3 (human)) of 95.2% and a residual activity (FER (human)) of 101%. For the same compound, the residual activity (NTRK1 (human)) was 98.6%, the residual activity (EPHB3 (human)) was 94.2% and the residual activity (CSNK1D (human)) was 96.4%.

Source: the kinase profiling compilation of Christmann-Franck et al. (2016)
